The supplement of paper PMC10307832

Legend:
Experiment in all cases: relative viability (nuclei count vs DMSO), 5 days (fraction); higher = more cells survive
[1] = compound: O=C(Nc1cc(C(F)(F)F)cc(C(F)(F)F)c1)c1cc(Cl)ccc1O [IMD-0354] + COc1cccc2cc(-c3nc([C@H]4CC[C@H](C(=O)O)CC4)n4ncnc(N)c34)[nH]c12 [OSI-027] (partner 0.5 µM)
Summary of the method: (§1)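 The day after seeding in 1536-well plates, lung cancer cell lines were treated by pin tool with a single drug, or with a fixed anchor-drug dose together with five library-drug doses (not always all listed) in √10 steps. After 5 days, a combined fix-and-stain solution (final 0.05% Triton X-100, 1% formaldehyde, 1 ug/ml Hoechst) was added. Nuclei counted on 4× images gave relative viability as treated counts over vehicle counts, reported as the median of duplicate plates.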

[2] = compound: Cc1cnc(CNC(=O)c2c(=O)c3ccc(N4CCCN(C)CC4)nc3n3c2sc2ccccc23)cn1 [CX-5461] + CCNC(=O)c1noc(-c2cc(C(C)C)c(O)cc2O)c1-c1ccc(CN2CCOCC2)cc1 [Luminespib] (partner 0.01 µM)
Summary of the method: as §1

[3] = compound: O=C(Nc1cc(C(F)(F)F)cc(C(F)(F)F)c1)c1cc(Cl)ccc1O [IMD-0354] + CC(=O)c1c(C)c2cnc(Nc3ccc(N4CCNCC4)cn3)nc2n(C2CCCC2)c1=O [Palbociclib] (partner 0.5 µM)
Summary of the method: as §1

[4] = compound: O=C(Nc1cc(C(F)(F)F)cc(C(F)(F)F)c1)c1cc(Cl)ccc1O [IMD-0354] + O=C(CCCCCCC(=O)Nc1ccccc1)NO [Vorinostat] (partner 1 µM)
Summary of the method: as §1

With UMC-11 the relative viability ([1]; first compound 0.04 µM) was 0.57, the relative viability ([1]; first compound 0.1265 µM) was 0.469 and the relative viability ([1]; first compound 0.4 µM) was 0.3. The relative viability ([1]; first compound 1.265 µM) was 0.215, the relative viability ([1]; first compound 4 µM) was 0.205 and the relative viability ([2]; first compound 0.01 µM) was 1.01. The relative viability ([2]; first compound 0.03162 µM) was 0.931, the relative viability ([2]; first compound 0.1 µM) was 0.965 and the relative viability ([2]; first compound 0.3162 µM) was 0.951. For the same cell line, the relative viability ([2]; first compound 1 µM) was 0.423, the relative viability ([3]; first compound 0.04 µM) was 0.344 and the relative viability ([3]; first compound 0.1265 µM) was 0.303. It also gave a relative viability ([3]; first compound 0.4 µM) of 0.323, a relative viability ([3]; first compound 1.265 µM) of 0.215 and a relative viability ([3]; first compound 4 µM) of 0.18. For the same cell line, the relative viability ([4]; first compound 0.04 µM) was 0.39, the relative viability ([4]; first compound 0.1265 µM) was 0.407 and the relative viability ([4]; first compound 0.4 µM) was 0.278. It also gave a relative viability ([4]; first compound 1.265 µM) of 0.189 and a relative viability ([4]; first compound 4 µM) of 0.239.
